What all share (assay type): cell-based
The target in test [1] is T1, hGIPR (Homo sapiens, UniProt P48546).
T1 sequence (P48546 22-466): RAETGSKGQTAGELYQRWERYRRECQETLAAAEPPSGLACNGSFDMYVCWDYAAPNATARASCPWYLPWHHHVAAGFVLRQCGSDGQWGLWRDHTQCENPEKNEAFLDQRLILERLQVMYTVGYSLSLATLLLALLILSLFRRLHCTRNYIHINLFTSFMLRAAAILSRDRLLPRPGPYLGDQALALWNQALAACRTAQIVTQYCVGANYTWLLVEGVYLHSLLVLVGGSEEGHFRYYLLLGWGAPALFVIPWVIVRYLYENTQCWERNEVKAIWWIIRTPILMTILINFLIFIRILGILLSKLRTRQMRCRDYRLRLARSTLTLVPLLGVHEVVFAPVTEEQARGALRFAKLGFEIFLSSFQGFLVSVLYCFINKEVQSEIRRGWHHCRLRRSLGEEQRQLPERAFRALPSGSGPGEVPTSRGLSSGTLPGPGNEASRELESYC
Briefly: Functional cAMP activity in the presence of 1% HSA. The following applies: read-out: cAMP Rel EC50, hGIPR.

The target in test [2] is T2, hGLP-1R (Homo sapiens, UniProt P43220). The experiment in a line: Functional cAMP activity in the presence of 1% HSA. The following applies: read-out: cAMP Rel EC50, hGLP-1R.
Test [3] concerns the target human GcgR (Homo sapiens, UniProt P47871). The experiment in a line: Functional cAMP activity in the presence of 1% HSA. The note with it: read-out: cAMP Rel EC50, hGcgR.
Test [4] addresses T1, hGIPR. Briefly: Functional cAMP activation in the presence of 0.1% casein (no HSA). The note with it: read-out: Relative cAMP EC50, hGIPR.
Test [5] has as its target T2, hGLP-1R. The description is as above. The note with it: read-out: Relative cAMP EC50, hGLP-1R.
In test [6] the target is hGcgR (Homo sapiens, UniProt P47871). The description is as above. The following applies: read-out: Relative cAMP EC50, hGcgR.
[7] abbreviates: in the presence of 0.1% casein (no HSA), geometric mean.

pEC50: −log10 of the molar value. Read-outs that look alike come from different tables or passages of the source. Starred links: 1 amine or outer side, 2 acyl side, 3 side chain; linkers in the order of their positions; H or OH if unused. Non-standard residues stand in square brackets, D forms with d. Residues, ends and D or L forms follow the SMILES beside them. Groups on a side chain read outwards from the residue. *: point of attachment. C20 diacid = O=C(O)CCCCCCCCCCCCCCCCCCC(=O)*; C18 diacid = O=C(O)CCCCCCCCCCCCCCCCC(=O)*; αMePhe(2-F) = C[C@](N)(Cc1ccccc1F)C(=O)O; γGlu = O=C(O)[C@H](CCC(=O)[*:2])N[*:1]; αMe4Pal = C[C@](N)(Cc1ccncc1)C(=O)O; αMeY = C[C@](N)(Cc1ccc(O)cc1)C(=O)O; αMeF = C[C@](N)(Cc1ccccc1)C(=O)O; 4Pal = N[C@@H](Cc1ccncc1)C(=O)O; αMeL = CC(C)C[C@](C)(N)C(=O)O; αMeS = C[C@](N)(CO)C(=O)O; Orn = NCCC[C@H](N)C(=O)O; AEEA = NCCOCCOCC(=O)O; Aib = CC(C)(N)C(=O)O
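For Relative cAMP EC50, hGIPR in this document: intracellular cAMP rise after 30 min at 37 °C read by HTRF against a standard curve, scaled between buffer alone (0%) and top control ligand concentration (100%), four-parameter fit.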
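For Relative cAMP EC50, hGLP-1R in this document: intracellular cAMP rise after 30 min at 37 °C read by HTRF, normalized between buffer only (0%) and maximal control ligand (100%), four-parameter variable-slope fit.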
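For Relative cAMP EC50, hGcgR in this document: intracellular cAMP rise after 30 min at 37 °C, read by HTRF against a cAMP standard curve, scaled from buffer only (0%) to maximal control ligand response (100%).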

Chain of human GcgR (P47871 26-477): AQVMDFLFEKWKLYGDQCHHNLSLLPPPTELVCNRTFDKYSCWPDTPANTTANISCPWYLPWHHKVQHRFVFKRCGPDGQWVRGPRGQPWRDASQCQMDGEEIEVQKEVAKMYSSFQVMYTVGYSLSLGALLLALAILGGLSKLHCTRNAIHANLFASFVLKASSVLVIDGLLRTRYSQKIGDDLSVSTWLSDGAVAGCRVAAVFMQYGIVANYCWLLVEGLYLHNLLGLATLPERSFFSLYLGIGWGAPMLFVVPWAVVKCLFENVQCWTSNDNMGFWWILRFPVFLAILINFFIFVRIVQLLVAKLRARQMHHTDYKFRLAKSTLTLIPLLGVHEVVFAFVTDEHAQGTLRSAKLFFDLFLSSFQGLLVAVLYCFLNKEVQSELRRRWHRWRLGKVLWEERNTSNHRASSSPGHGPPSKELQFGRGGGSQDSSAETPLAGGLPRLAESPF
Chain of hGcgR (P47871 26-477): as above
T2 sequence (P43220 24-463): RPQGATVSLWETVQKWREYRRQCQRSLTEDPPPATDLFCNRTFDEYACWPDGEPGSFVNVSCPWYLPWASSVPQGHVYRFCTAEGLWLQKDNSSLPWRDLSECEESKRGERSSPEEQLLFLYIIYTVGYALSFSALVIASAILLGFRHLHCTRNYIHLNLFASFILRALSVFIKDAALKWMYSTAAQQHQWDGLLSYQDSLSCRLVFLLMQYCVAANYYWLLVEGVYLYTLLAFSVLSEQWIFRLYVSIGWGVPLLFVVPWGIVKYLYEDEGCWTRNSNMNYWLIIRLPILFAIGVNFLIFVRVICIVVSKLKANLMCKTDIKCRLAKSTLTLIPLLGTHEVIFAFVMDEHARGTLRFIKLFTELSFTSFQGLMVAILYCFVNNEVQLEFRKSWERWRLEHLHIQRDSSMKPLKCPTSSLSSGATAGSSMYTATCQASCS

The pEC50 is the EC50 on a negative log10 scale, so that one unit is a factor of ten. Consider `CC[C@H](C)[C@H](NC(=O)[C@H](Cc1ccccc1)NC(=O)[C@H](CCCN)NC(=O)C(C)(C)NC(=O)[C@H](CCC(N)=O)NC(=O)[C@H](C)NC(=O)[C@H](CCCCNC(=O)COCCOCCNC(=O)CC[C@H](NC(=O)CCCCCCCCCCCCCCCCC(=O)O)C(=O)O)NC(=O)[C@H](CCCN)NC(=O)[C@H](CC(=O)O)NC(=O)[C@H](CC(C)C)NC(=O)[C@](C)(CC(C)C)NC(=O)[C@@H](NC(=O)[C@](C)(CO)NC(=O)[C@H](Cc1ccc(O)cc1)NC(=O)[C@H](CC(=O)O)NC(=O)[C@H](CO)NC(=O)[C@@H](NC(=O)[C@](C)(Cc1ccccc1)NC(=O)[C@@H](NC(=O)CNC(=O)[C@H](CCC(N)=O)NC(=O)C(C)(C)NC(=O)[C@@H](N)Cc1ccc(O)cc1)[C@@H](C)O)[C@@H](C)O)[C@@H](C)CC)C(=O)N[C@H](CCC(=O)O)C(=O)N[C@@H](Cc1ccc(O)cc1)C(=O)N[C@@H](CC(C)C)C(=O)N[C@@H](CC(C)C)C(=O)N[C@@H](CCC(=O)O)C(=O)NCC(=O)NCC(=O)N1CCC[C@H]1C(=O)N[C@@H](CO)C(=O)N[C@@H](CO)C(=O)NCC(=O)N[C@@H](CCC(=O)O)C(=O)N1CCC[C@H]1C(=O)N1CCC[C@H]1C(=O)N1CCC[C@H]1C(=O)N[C@@H](CCC(=O)O)C(N)=O` [Example 391] (H-Y[Aib]QGT[αMeF]TSDY[αMeS]I[αMeL]LD[Orn]K([AEEA-γGlu-C18 diacid])AQ[Aib][Orn]FI[dE]YLLEGGPSSGEPPPE-NH2), for which the pEC50 was 7.94 in test [1]; 7.46 in test [2]; 6.09 in test [3]; 10.53 in test [4]; 9.70 in test [5]; 8.52 in test [6].

For “H-Y[Aib]QGT[αMePhe(2-F)]TSD[4Pal][αMeS]ILLD[Orn]K([γGlu-γGlu-C18 diacid])AQ[Aib][Orn]FI[dE]YLIEGGPSSGEPPPEGSEE-NH2 [Example 603]”, the pEC50 is 8.30 in test [1]; 7.31 in test [2]; 6.38 in test [3]; 9.99 in test [4]; 9.16 in test [5]; 8.27 in test [6].

With “H-Y[Aib]QGT[αMePhe(2-F)]TSD[4Pal][αMeS]I[αMeL]LD[Orn]K([γGlu-γGlu-C18 diacid])AQ[αMe4Pal]EFI[dE][αMeY]LIEGGPSSGEPPPSGGGE-NH2 [Example 744]”, the negative-log EC50 (pEC50) in test [1] is 9.31; in test [2], 7.66; in test [3], 6.95; in test [4], 11.07; in test [5] it was 9.56; in test [6], 8.98.

As to “H-Y[Aib]QGTFTSDFS[Orn][αMeL]LDKK([AEEA-γGlu-C18 diacid])AQ[Aib]AFIEWLLEGGPSSGAPPPEG[4Pal]-NH2 [Example 262]”, the negative logarithm of the EC50 (pEC50) is 7.39 in test [1]; 6.40 in test [2]; 6.14 in test [3]; 9.63 in test [4] (setting [7]); 8.36 in test [5] (setting [7]); 8.01 in test [6] (setting [7]).

On to “H-Y[Aib]QGT[αMePhe(2-F)]TSD[4Pal]SILLDKK([γGlu-γGlu-C18 diacid])AQ[Aib]AFIE[4Pal]LEEGGPSSGAPPPSGTE-NH2 [Example 550]”, for which the pEC50 in test [1] was 8.23; in test [2] it was 6.58; in test [3], 6.00; in test [4], 10.06; in test [5] it was 8.67; in test [6], 7.93.

Consider “H-Y[Aib]QGTFTSDFS[Orn][αMeL]LDKK([AEEA-AEEA-γGlu-C18 diacid])AQ[Aib]AFIEYLLE[Aib]GESSGAPPPSGT-NH2 [Example 180]”, for which the pEC50 is 7.62 in test [1]; 6.05 in test [2]; 5.88 in test [3]; 9.85 in test [4] (setting [7]); 8.29 in test [5] (setting [7]); 8.61 in test [6] (setting [7]).

Turning to “H-Y[Aib]QGTFTSD[4Pal]SQ[αMeL]LD[Orn]K([AEEA-γGlu-C18 diacid])AQ[αMe4Pal]QFIE[αMeY]LIEGGPSSGAPPPSGS-NH2 [Example 857]”, the pEC50 in test [1] is 7.44; in test [2], 7.06; in test [3] it was 5.98; in test [4] (setting [7]), 9.36; in test [5] (setting [7]) it was 9.36; in test [6] (setting [7]), 8.21.

In the case of “H-Y[Aib]QGTFTSDFS[Orn][αMeL]LDKK([AEEA-γGlu-C18 diacid])AQ[αMe4Pal]AFIE[αMeY]LIEGGPSSGAPPPSGS-NH2 [Example 845]”, the pEC50 in test [1] is 7.63; in test [2], 7.05; in test [3], 6.69; in test [4] (setting [7]), 9.75; in test [5] (setting [7]), 9.79; in test [6] (setting [7]), 9.20.

For “H-Y[Aib]QGTFTSDFS[Orn][αMeL]LDKK([AEEA-γGlu-C18 diacid])AQ[Aib]AFIEYLIE[Aib]SPSSGAPPPSGS-NH2 [Example 804]”, the pEC50 is 7.75 in test [1]; 6.79 in test [2]; 5.64 in test [3]; 10.12 in test [4] (setting [7]); 9.04 in test [5] (setting [7]); 7.94 in test [6] (setting [7]).

As for “H-Y[Aib]QGTFTSDFSK[αMeL]LDKK([AEEA-γGlu-C20 diacid])AQ[Aib]AFIEYLLEGGPSSGEPPPGEG[AEEA]-NH2 [Example 54]”, the pEC50 was 6.77 in test [1]; 5.89 in test [2]; 5.71 in test [3]; 9.30 in test [4] (setting [7]); 8.40 in test [5] (setting [7]); 8.42 in test [6] (setting [7]).

With `CC[C@H](C)[C@H](NC(=O)[C@H](CC(C)C)NC(=O)[C@H](Cc1ccc(O)cc1)NC(=O)[C@H](CCC(=O)O)NC(=O)[C@@H](NC(=O)[C@H](Cc1ccccc1)NC(=O)[C@H](C)NC(=O)C(C)(C)NC(=O)[C@H](CCC(N)=O)NC(=O)[C@H](C)NC(=O)[C@H](CCCCNC(=O)COCCOCCNC(=O)COCCOCCNC(=O)CC[C@H](NC(=O)CCCCCCCCCCCCCCCCCCC(=O)O)C(=O)O)NC(=O)[C@H](CCCCN)NC(=O)[C@H](CC(=O)O)NC(=O)[C@H](CC(C)C)NC(=O)[C@](C)(CC(C)C)NC(=O)[C@@H](NC(=O)[C@](C)(CO)NC(=O)[C@H](Cc1ccc(O)cc1)NC(=O)[C@H](CC(=O)O)NC(=O)[C@H](CO)NC(=O)[C@@H](NC(=O)[C@H](Cc1ccccc1)NC(=O)[C@@H](NC(=O)CNC(=O)[C@H](CCC(N)=O)NC(=O)C(C)(C)NC(=O)[C@@H](N)Cc1ccc(O)cc1)[C@@H](C)O)[C@@H](C)O)[C@@H](C)CC)[C@@H](C)CC)C(=O)N[C@@H](CCC(=O)O)C(=O)NCC(=O)NCC(=O)N1CCC[C@H]1C(=O)N[C@@H](CO)C(=O)N[C@@H](CO)C(=O)NCC(=O)N[C@@H](C)C(=O)N1CCC[C@H]1C(=O)N1CCC[C@H]1C(=O)N1CCC[C@H]1C(=O)N[C@@H](CO)C(N)=O` [Example 382] (H-Y[Aib]QGTFTSDY[αMeS]I[αMeL]LDKK([AEEA-AEEA-γGlu-C20 diacid])AQ[Aib]AFIEYLIEGGPSSGAPPPS-NH2), the negative-log EC50 (pEC50) in test [1] was 7.75; in test [2], 7.21; in test [3], 5.98; in test [4] (setting [7]), 10.43; in test [5] (setting [7]), 9.54; in test [6] (setting [7]) it was 8.43.

Values taken from patent US20240270821A1, “GIP/GLP1/GCG TRI-RECEPTOR AGONISTS AND USES THEREOF” (priority 2023, published 2024).
